Here are results for 22 compounds from US8288377B2, “Inhibitors of the interaction between MDM2 and p53” (Janssen Pharmaceutica N.V., priority 2007, dated 2012).

Experiment [1] has as its system A2780 ovarian cancer cells. Kind of experiment: Proliferation assay (Alamar Blue). Format: cell-based. Conditions: Homo sapiens, 96 h, 4-day incubation, read-out: pIC50 (negative log value of the IC50-value) (converted). The protocol: Cellular activity of the compounds of formula (I) was determined on A2780 tumour cells using a colorimetric assay for cell toxicity or survival (see example C.2).
The human A2780 ovarian cancer cells were a kind gift from Dr. T. C. Hamilton (Fox Chase Cancer Centre, Pennsylvania, U.S.A.). The cells were cultured in RPMI 1640 medium supplemented with 2 mM L-Glutamine, 50 μg/ml gentamicin and 10% fetal calf serum.
Resazurin was purchased from Aldrich (Prod. No. 199303). Potassium ferrocyanide, potassium ferricyanide, KH2PO4 and K2HPO4 were purchased from Sigma (Prod. Nos. P9387, P8131, P5655 and P8281, respectively).
Potassium Phosphate Buffer 0.1 M (PPB) was made as follows: 2.72 gram KH2PO4 and 13.86 gram K2HPO4 were dissolved in 500 ml milli-Q H2O, the pH was adjusted to pH 7.4 and the volume was brought to 1 liter with milli-Q H2O; the buffer was filter sterilised and stored at room temperature. Resazurin stock solution (PPB-A) was prepared fresh by dissolving 45 mg resazurin in 15 ml PBS. 30 mM potassium ferricyanide (PPB-B) was prepared by dissolving 0.987 gram potassium ferricyanide in 100 ml PPB. 30 mM potassium ferrocyanide (PPB-C) was prepared by dissolving 1.266 gram potassium ferrocyanide in 100 ml PPB.
Mixture of PPB-A, PPB-B and PPB-C was prepared by mixing equal volumes of the respective solutions. Resazurin work solution (herein termed “Alamar Blue” solution) was prepared by diluting said mixture 20× (vol/vol) in PPB and filter sterilising; the Alamar Blue solution could be kept at 4° C. for a maximum of 2 weeks.
For experiments in 384 wells plates the cells were seeded at a density of 5×10^3 cells/ml in Falcon 384-well culture plates (Life Technologies, Merelbeke, Belgium), black with clear bottom, in 45 μl culture medium. Cells were allowed to adhere to plastic for 24 hr. The tested compound was pre-diluted (1/50 in culture medium) and 5 μl pre-diluted compound was added to the wells. Following 4-day incubation, 10 μl of the Alamar Blue solution was added to each well and the cells were further incubated for 5 hrs (A2780) at 37° C. The fluorescence intensity was measured for each well with a Fluorescence plate reader (Fluorskan, Labsystems, 540 nm excitation and 590 nm emission)
The antiproliferative activity was calculated as percentage of remaining viable cells in treated versus control (untreated cells) conditions. Within an experiment, the result for each experimental condition is the mean of 3 replicate wells. When appropriate, the experiments were repeated to establish full concentration-response curves. When appropriate, IC50-values (concentration of the drug, needed to reduce cell growth to 50% of the control) were computed using probit analysis for graded data (Finney, D. J., Probit Analyses, 2nd Ed. Chapter 10, Graded Responses, Cambridge University Press, Cambridge 1962). Herein the effects of test compounds are expressed as pIC50 (the negative log value of the IC50-value) (see Table 4).

Another experiment concerns p53 in A2780 cells. Kind of experiment: p53 ELISA (preservation of p53 in A2780 cells). It is filed as cell-based. Particulars: Homo sapiens, treated with compound for 16 hours, read-out: p53-elisa LAD (lowest dose giving at least 140% of the value for p53 present in the control). The method, then: The capacity of the compounds to preserve p53 in A2780 cells was measured with the p53 enzyme linked immunosorbent assay (ELISA). The p53 assay is a “sandwich” enzyme immunoassay employing two polyclonal antibodies. A polyclonal antibody, specific for the p53 protein, has been immobilized onto the surface of the plastic wells. Any p53 present in the sample to be assayed will bind to the capture antibody. The biotinylated detector polyclonal antibody also recognizes p53 protein, and will bind to any p53, which has been retained by the capture antibody. The detector antibody, in turn, is bound by horseradish peroxidase-conjugated streptavidin. The horseradish peroxidase catalyses the conversion of the chromogenic substrate o-phenylene diamine, the intensity of which is proportional to the amount of p53 protein bound to the plate. The coloured reaction product is quantified using a spectrophotometer. Quantitation is achieved by the construction of a standard curve using known concentrations of purified recombinant HIS tagged p53 protein (see example C.1).
A2780 cells (ATCC) were cultivated in RPMI 1640 supplemented with 10% fetal calf serum (FCS), 2 mM L-glutamine and gentamycin at 37° C. in a humidified incubator with 5% CO2.
A2780 cells were seeded at 20.000 cells per well in a 96 well plate, cultured for 24 hours and treated with compound for 16 hours at 37° C. in a humidified incubator. After incubation, the cells were washed once with phosphate-buffered saline and 30 μl, per well, low salt RIPA buffer (20 mM tris, pH7.0, 0.5 mM EDTA, 1% Nonidet P40, 0.5% DOC, 0.05% SDS, 1 mM PMSF, 1 μg/ml aprotinin and 0.5 μ/ml leupeptin) was added. Plates were placed on ice for 30 minutes to complete the lysis. p53 protein was detected in de lysates by using the sandwich ELISA, described below.
High binding polystyrene EIA/RIA 96 well plates (Costar 9018) were coated with the capture antibody pAb1801 (Abcam ab28-100) at a concentration of 1 μg/ml in coating buffer (0.1 M NaHCO3 pH8.2), 50 μl per well. The antibody was allowed to adhere overnight at 4° C. Coated plates were washed once with phosphate-buffered saline (PBS)/0.05% Tween 20 and 300 μl of blocking buffer (PBS, 1% bovine serum albumins (BSA)) was added, for an incubation period of 2 hours at room temperature. Dilutions of purified recombinant HIS tagged p53 protein, ranging from 3-200 ng/ml, were made in blocking buffer and used as standards.
Plates were washed twice with PBS/0.05% Tween 20 and blocking buffer or standards were added at 80 μl/well. To the standards, 20 μl of lysis buffer was added. The samples were added to the other wells at 20 μl lysate/well. After an overnight incubation at 4° C., plates were washed twice with PBS/0.05% Tween 20. Aliquots of 100 μl secondary polyclonal antibody p53(FL-393) (Tebubio, sc-6243) at a concentration of 1 μg/ml in blocking buffer were added to each well and allowed to adhere for 2 hours at room temperature. Plates were washed three times with PBS/0.05% Tween 20. Detection antibody anti-rabbit HRP (sc-2004, Tebubio) at 0.04 μg/ml in PBS/1% BSA was added and incubated for 1 hour at room temperature. Plates were washed three times with PBS/0.05% Tween 20 and 100 μl of substrate buffer was added (substrate buffer was prepared shortly before use by adding 1 tablet of 10 mg o-phenylene diamine (OPD) from Sigma and 125 μl 3% H2O2 to 25 ml OPD buffer: 35 mM citric acid, 66 mM Na2HPO4, pH5.6). After 5 to 10 minutes, colour reaction was stopped by adding 50 μl stop buffer (1 M H2SO4) per well. The absorbance at dual wavelengths of 490/655 nm was measured using a Biorad micro plate reader and the results were then analyzed.
For each experiment, controls (containing no drug) and a blank incubation (containing no cells or drugs) were run in parallel. The blank value was subtracted from all control and sample values. For each sample, the value of p53 (in absorbance units) was expressed as the percentage of the value for p53 present in the control. […]
On the technique in general: ELISA stands for enzyme-linked immunosorbent assay.

By IC50 is commonly meant the concentration needed to halve the response being measured. For the compound `Cc1cccc2c(CCN3CC(C)(C)Oc4cc(Nc5ccncc5)ccc43)c[nH]c12` [Compound 52], in experiment [1], the IC50 is 3.09 µM. Also, the minimal effective concentration in the experiment with p53 in A2780 cells was above 10 µM.

For the compound `Cc1cccc2c(CCN3CC(C)Oc4cc(Nc5ccncc5)ccc43)coc12` (centres unmarked) [Compound 53], the IC50 in experiment [1] was 3.47 µM. Also, in the experiment on p53 in A2780 cells, the minimal effective concentration is above 10 µM.

As to `CCC1(C)CN(CCc2c[nH]c3ccccc23)c2ccc(Nc3ccncc3)cc2O1` (centres unmarked) [Compound 54], in experiment [1], the IC50 was 3.63 µM. In addition, the minimal effective concentration in the experiment on p53 in A2780 cells is above 10 µM.

In the case of `c1ccc2c(CCN3CC4(CCCCC4)Oc4cc(Nc5ccncc5)ccc43)c[nH]c2c1` [Compound 55], in experiment [1], the half-maximal inhibitory concentration (IC50) is 3.72 µM. Also, in the experiment on p53 in A2780 cells, the minimal effective concentration is above 10 µM.

For `c1ccc2c(CCN3CC4(CCSCC4)Oc4cc(Nc5ccncc5)ccc43)c[nH]c2c1` [Compound 56], the IC50 in experiment [1] was around 4.79 µM. Besides, the minimal effective concentration with p53 in A2780 cells is above 10 µM.

For `Cc1cccc2c(CCN3CC4(CCCCC4)Oc4cc(Nc5ccncc5)ccc43)c[nH]c12` [Compound 59], the IC50 in experiment [1] is 2.45 µM. Further, the minimal effective concentration in the experiment with p53 in A2780 cells was above 10 µM.

Regarding `CC1Oc2cc(Nc3ccncc3)ccc2N(CCc2c[nH]c3ccccc23)C1=O` (centres unmarked) [Compound 61], the IC50 in experiment [1] is above 10 µM. Besides, in the experiment on p53 in A2780 cells, the minimal effective concentration is above 10 µM.

Consider `CC1(C)CN(CCc2c[nH]c3ccccc23)c2ccc(Nc3ccncc3)cc2O1` [Compound 62], for which the IC50 in experiment [1] is 5.37 µM. Besides, in the experiment on p53 in A2780 cells, the minimal effective concentration was above 10 µM.

As to `CC1(C)Oc2cc(Nc3ccncc3)ccc2N(CCc2c[nH]c3ccccc23)C1=O` [Compound 63], the IC50 in experiment [1] was above 10 µM. In the experiment on p53 in A2780 cells, the minimal effective concentration was above 10 µM.

Turning to `CC1Oc2cc(Nc3ccnc(CO)c3)ccc2N(CCc2c[nH]c3ccccc23)C1=O` (centres unmarked) [Compound 65], the IC50 in experiment [1] was above 10 µM. Further, the minimal effective concentration in the experiment with p53 in A2780 cells is above 10 µM.

Consider `OCc1cc(Nc2ccc3c(c2)CCCN3CCc2c[nH]c3ccccc23)ccn1` [Compound 66], for which the IC50 in experiment [1] was 1.41 µM. Also, in the experiment on p53 in A2780 cells, the minimal effective concentration stood at 3 µM.

For the compound `OCc1cc(Nc2ccc3c(c2)OCCN3CCc2csc3ccccc23)ccn1` [Compound 67], the 50% inhibitory concentration (IC50) in experiment [1] is 5.01 µM. In the experiment on p53 in A2780 cells, the minimal effective concentration was 10 µM.

Consider `OCc1cc(Nc2ccc3c(c2)OCCN3CCc2coc3ccccc23)ccn1` [Compound 68], for which the IC50 in experiment [1] was 5.25 µM. Moreover, in the experiment on p53 in A2780 cells, the minimal effective concentration is above 10 µM.

As for `OCc1cc(Nc2cc(F)c3c(c2)OCCN3CCc2c[nH]c3ccccc23)ccn1` [Compound 69], the IC50 in experiment [1] was above 10 µM. In addition, the minimal effective concentration in the experiment with p53 in A2780 cells came out at 10 µM.

In the case of `OC1CCc2c(Nc3ccc4c(c3)OCCN4CCc3coc4ccccc34)ccnc21` (centres unmarked) [Compound 70], the IC50 in experiment [1] is 6.46 µM. Moreover, the minimal effective concentration in the experiment with p53 in A2780 cells was found to be 10 µM.

Turning to `COc1cccc2c(CCN3CCOc4cc(Nc5ccnc6c5CCC6O)ccc43)c[nH]c12` (centres unmarked) [Compound 71], the concentration for half-maximal inhibition (IC50) in experiment [1] is 5.25 µM. Further, the minimal effective concentration with p53 in A2780 cells was above 10 µM.

On to `Cc1cccc2c(CCN3CCOc4cc(Nc5ccnc(CO)c5)ccc43)c[nH]c12` [Compound 72], for which, in experiment [1], the IC50 is 4.68 µM. Further, the minimal effective concentration with p53 in A2780 cells is above 10 µM.

Take `CN1CCN(CCc2c[nH]c3ccccc23)c2ccc(Nc3ccnc4c3CCC4O)cc21` (centres unmarked) [Compound 75]: in experiment [1], the IC50 was around 5.25 µM. Moreover, the minimal effective concentration in the experiment on p53 in A2780 cells was above 10 µM.

Consider `CN1CCN(CCc2c[nH]c3ccccc23)c2ccc(Nc3ccncc3)cc21` [Compound 76], for which the IC50 in experiment [1] is 3.31 µM. Further, in the experiment with p53 in A2780 cells, the minimal effective concentration was determined as 10 µM.

For the compound `CC1(C)CN(CCc2c[nH]c3ccccc23)c2ccc(Nc3ccnc4c3CCC4O)cc2O1` (centres unmarked) [Compound 77], the IC50 in experiment [1] was 2.19 µM. In the experiment on p53 in A2780 cells, the minimal effective concentration came out at 3 µM.

For the compound `CC1(C)CN(CCc2c[nH]c3ccccc23)c2ccc(Nc3ccnc(CO)c3)cc2O1` [Compound 78], in experiment [1], the IC50 is 6.17 µM. For the same compound, the minimal effective concentration with p53 in A2780 cells was above 10 µM.

In the case of `COc1cccc2c(CCN3CCOc4cc(Nc5ccnc(CO)c5)ccc43)c[nH]c12` [Compound 81], the IC50 in experiment [1] is 4.17 µM. Further, in the experiment with p53 in A2780 cells, the minimal effective concentration was above 10 µM.
